Literature values in patent publication US20240165002A1, “Compositions Incorporating Avobenzone Complexes” (University of Cincinnati, priority 2022, published 2024).

How the values were obtained:
[1] = at 360 nm

- duration of photoprotection once exposed to sun (once exposed to sun): 30 min
- photostability (upon exposure to light, keto-enol tautomerization): poor photostability
- molar absorption coefficient [1]: 33,756 L/(mol·cm)
Compound: COc1ccc(C(=O)CC(=O)c2ccc(C(C)(C)C)cc2)cc1 [Avobenzone, 1-(4-methoxyphenyl)-3-(4-tertbutylphenyl)-propane-1,3-dione]
